For 15 molecules, IC50 results are on record in patent US11793823B2, “Compounds and pharmaceutical uses thereof” (SyneuRx International (Taiwan) Corp., priority 2020, dated 2023).

Counter-ions that a name gives are not always drawn.

Sequence of human D-amino acid oxidase (hDAAO) (P14920 whole entry): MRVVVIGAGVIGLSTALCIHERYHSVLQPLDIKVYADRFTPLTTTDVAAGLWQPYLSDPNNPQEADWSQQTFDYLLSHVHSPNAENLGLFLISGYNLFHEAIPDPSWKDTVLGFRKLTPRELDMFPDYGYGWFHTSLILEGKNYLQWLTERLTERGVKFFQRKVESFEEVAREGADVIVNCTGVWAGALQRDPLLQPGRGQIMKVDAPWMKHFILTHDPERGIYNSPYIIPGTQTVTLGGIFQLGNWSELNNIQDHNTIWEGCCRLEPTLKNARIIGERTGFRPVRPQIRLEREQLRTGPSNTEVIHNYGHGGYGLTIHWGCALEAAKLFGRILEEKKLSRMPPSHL

The assay concerns the target human D-amino acid oxidase (hDAAO) (Homo sapiens (Human), UniProt P14920). The assay is described as follows: In vitro human D-amino acid oxidase (hDAAO) activity, D-Serine/Amplex Red fluorescence. The format is biochemical. Conditions: D-Serine substrate, 20 min. The protocol:
The hDAAO inhibitory activities were measured by using D-Serine as a substrate to produce H2O2. The produced H2O2 would be oxidized by peroxidase, and the produced free radicals would further react with Amplex Red reagent to emit fluorescence. The intensity of fluorescence at 590 nm would be measured to represent the activity of hDAAO. All compounds were dissolved in DMSO. Each compound was diluted with DMSO in 3-fold serial dilution to create a dose response curve. Each sample was added in triplicate, 1 µL/well, into 96-well black plates. Positive control wells were added with 1 μL of DMSO. Then 49 μL of assay buffer (100 mM Tris-HCl, pH 8.5) containing 1.2 ng/mL hDAAO, 900 nM FAD, 0.2 units/mL HRP, and 100 μM Amplex Red was added to each well of the plate using a multichannel pipette. Next, 50 μL of 100 mM D-Serine in assay buffer was added. The reaction plates were then incubated in the dark at room temperature. The fluorescence readout was detected at 0 and 20 mins by Molecular Device Gemini EM fluorescence reader using the following settings: excitation filter 530 nm, and emission filter 590 nm. The percentage of inhibition values for each well was calculated with the following equation: The percentage of inhibition=(fluorescence sample, 20 min−fluorescence sample, 0 min)/(fluorescence DMSO, 20 min−fluorescence DMSO, 0 min)×100%
The nonlinear curve fitting model in GraphPad Prism was used to calculate IC50 value for each compound.
For “3-((3-((3-((3-((3-((3-((3-((1H-pyrrole-2-carbonyl)oxy)-4,5-dihydroxybenzoyl)oxy)-4,5-dihydroxybenzoyl)oxy)-4,5-dihydroxybenzoyl)oxy)-4,5-dihydroxybenzoic acid [Compound 28]”, the IC50 came to 82 nM.

In turn, `O=C(O)c1cc(O)c(O)c(OC(=O)c2cc(O)c(O)c(OC(=O)c3cc(O)c(O)c(OC(=O)c4cc(O)c(O)c(OC(=O)c5cc(O)c(O)c(OC(=O)c6cc(O)c(O)c(OC(=O)c7cc(O)c(O)c(O)c7)c6)c5)c4)c3)c2)c1` [Compound 22, 3-((3-((3-((3-((3-((3,4-dihydroxy-5-((3,4,5-trihydroxybenzoyl)oxy)benzoyl)oxy)-4,5-dihydroxybenzoyl)oxy)-4,5-dihydroxybenzoyl)oxy)-4,5-dihydroxybenzoyl)oxy)-4,5-dihydroxybenzoyl)oxy)-4,5-dihydroxybenzoic acid] came in with a half-inhibitory concentration (IC50) of 63 nM.

Take `O=C(O)c1cc(O)c(O)c(OC(=O)c2cc(O)c(O)c(OC(=O)c3cc(O)c(O)c(OC(=O)c4cc(O)c(O)c(OC(=O)c5cc(O)c(O)c(OC(=O)c6ccc[nH]6)c5)c4)c3)c2)c1` [Compound 25, 3-((3-((3-((3-((3-((1H-pyrrole-2-carbonyl)oxy)-4,5-dihydroxybenzoyl)oxy)-4,5-dihydroxybenzoyl)oxy)-4,5-dihydroxybenzoyl)oxy)-4,5-dihydroxybenzoyl)oxy)-4,5-dihydroxybenzoic acid]: the IC50 is 89 nM.

Consider `O=C(O)c1cc(O)c(O)c(OC(=O)c2cc(O)c(O)c(OC(=O)c3cc(O)c(O)c(OC(=O)c4cc(O)c(O)c(OC(=O)c5cc(O)c(O)c(OC(=O)c6cc(CCc7ccccc7)n[nH]6)c5)c4)c3)c2)c1` [Compound 34, 3-((3-((3-((3-((3,4-dihydroxy-5-((3-phenethyl-1H-pyrazole-5-carbonyl)oxy)benzoyl)oxy)-4,5-dihydroxybenzoyl)oxy)-4,5-dihydroxybenzoyl)oxy)-4,5-dihydroxybenzoyl)oxy)-4,5-dihydroxybenzoic acid], for which the IC50 amounted to 68 nM.

Turning to `O=C(O)c1cc(O)c(O)c(OC(=O)c2cc(O)c(O)c(OC(=O)c3cc(O)c(O)c(OC(=O)c4cc(O)c(O)c(OC(=O)c5cc(O)c(O)c(OC(=O)c6cc(CCc7cccc8c7CCCC8)n[nH]6)c5)c4)c3)c2)c1` [Compound 42, 3-((3-((3-((3-((3,4-dihydroxy-5-((3-(2-(5,6,7,8-tetrahydronaphthalen-1-yl)ethyl)-1H-pyrazole-5-carbonyl)oxy)benzoyl)oxy)-4,5-dihydroxybenzoyl)oxy)-4,5-dihydroxybenzoyl)oxy)-4,5-dihydroxybenzoyl)oxy)-4,5-dihydroxybenzoic acid], the IC50 came out at 31 nM.

Turning to `O=C(O)c1cc(O)c(O)c(OC(=O)c2cc(O)c(O)c(OC(=O)c3cc(O)c(O)c(OC(=O)c4cc(O)c(O)c(OC(=O)c5cc(O)c(O)c(OC(=O)c6cc(CCc7ccc(F)cc7)n[nH]6)c5)c4)c3)c2)c1` [Compound 50, 3-((3-((3-((3-((3-((3-(4-fluorophenethyl)-1H-pyrazole-5-carbonyl)oxy)-4,5-dihydroxybenzoyl)oxy)-4,5-dihydroxybenzoyl)oxy)-4,5-dihydroxybenzoyl)oxy)-4,5-dihydroxybenzoyl)oxy)-4,5-dihydroxybenzoic acid], the IC50 was determined as 38 nM.

`O=C(O)c1cc(O)c(O)c(OC(=O)c2cc(O)c(O)c(OC(=O)c3cc(O)c(O)c(OC(=O)c4cc(O)c(O)c(OC(=O)c5cc(O)c(O)c(OC(=O)c6cc(CCc7cc(F)cc(F)c7)n[nH]6)c5)c4)c3)c2)c1` [Compound 58, 3-((3-((3-((3-((3-((3-(3,5-difluorophenethyl)-1H-pyrazole-5-carbonyl)oxy)-4,5-dihydroxybenzoyl)oxy)-4,5-dihydroxybenzoyl)oxy)-4,5-dihydroxybenzoyl)oxy)-4,5-dihydroxybenzoyl)oxy)-4,5-dihydroxybenzoic acid] registered an IC50 of 33 nM.

Turning to `O=C(Oc1cccnc1)c1cc(O)c(O)c(OC(=O)c2cc(O)c(O)c(OC(=O)c3cc(O)c(O)c(OC(=O)c4cc(O)c(O)c(OC(=O)c5cc(O)c(O)c(O)c5)c4)c3)c2)c1` [Compound 94, 5-((5-((5-((2,3-dihydroxy-5-((pyridin-3-yloxy)carbonyl)phenoxy)carbonyl)-2,3-dihydroxyphenoxy)carbonyl)-2,3-dihydroxyphenoxy)carbonyl)-2,3-dihydroxyphenyl 3,4,5-trihydroxybenzoate hydrochloride salt], the half-inhibitory concentration (IC50) was determined as 42 nM.

With `O=C(Oc1cc(C(=O)Oc2cc(C(=O)Oc3cc(C(=O)Oc4cc(C(=O)OC5CCCCC5)cc(O)c4O)cc(O)c3O)cc(O)c2O)cc(O)c1O)c1cc(O)c(O)c(O)c1` [Compound 96, Cyclohexyl 3-((3-((3-((3,4-dihydroxy-5-((3,4,5-trihydroxybenzoyl)oxy)benzoyl)oxy)-4,5-dihydroxybenzoyl)oxy)-4,5-dihydroxybenzoyl)oxy)-4,5-dihydroxybenzoate], half-maximal inhibition (IC50) was put at 26 nM.

`O=C(Oc1cc(C(=O)Oc2cc(C(=O)Oc3cc(C(=O)Oc4cc(C(=O)OC5CC5)cc(O)c4O)cc(O)c3O)cc(O)c2O)cc(O)c1O)c1cc(O)c(O)c(O)c1` [Compound 98, 5-((5-((5-((5-(cyclopropoxycarbonyl)-2,3-dihydroxyphenoxy)carbonyl)-2,3-dihydroxyphenoxy)carbonyl)-2,3-dihydroxyphenoxy)carbonyl)-2,3-dihydroxyphenyl 3,4,5-trihydroxybenzoate]: the IC50 amounted to 33 nM.

Regarding `O=C(Oc1cc(C(=O)Oc2cc(C(=O)Oc3cc(C(=O)Oc4cc(C(=O)OC5CCCCCC5)cc(O)c4O)cc(O)c3O)cc(O)c2O)cc(O)c1O)c1cc(O)c(O)c(O)c1` [Compound 100, cycloheptyl 3-((3-((3-((3,4-dihydroxy-5-((3,4,5-trihydroxybenzoyl)oxy)benzoyl)oxy)-4,5-dihydroxybenzoyl)oxy)-4,5-dihydroxybenzoyl)oxy)-4,5-dihydroxybenzoate], the IC50 came to 19 nM.

Molecule `O=C(Oc1cc(OC(=O)c2cc(O)c(O)c(OC(=O)c3cc(O)c(O)c(OC(=O)c4cc(O)c(O)c(OC(=O)c5cc(O)c(O)c(OC(=O)c6cc(O)c(O)c(O)c6)c5)c4)c3)c2)cc(OC(=O)c2cc(O)c(O)c(OC(=O)c3cc(O)c(O)c(OC(=O)c4cc(O)c(O)c(OC(=O)c5cc(O)c(O)c(OC(=O)c6cc(O)c(O)c(O)c6)c5)c4)c3)c2)c1)c1ccccc1` [Compound 103, 5-(benzoyloxy)-1,3-phenylene bis(3-((3-((3-((3,4-dihydroxy-5-((3,4,5-trihydroxybenzoyl)oxy)benzoyl)oxy)-4,5-dihydroxybenzoyl)oxy)-4,5-dihydroxybenzoyl)oxy)-4,5-dihydroxybenzoate)] had an IC50 of 7 nM.

Molecule `O=C(Oc1cc(OC(=O)c2cc(O)c(O)c(OC(=O)c3cc(O)c(O)c(OC(=O)c4cc(O)c(O)c(OC(=O)c5cc(O)c(O)c(OC(=O)c6cc(O)c(O)c(O)c6)c5)c4)c3)c2)cc(OC(=O)c2cc(CCc3ccc(C(F)(F)F)cc3)n[nH]2)c1)c1cc(O)c(O)c(OC(=O)c2cc(O)c(O)c(OC(=O)c3cc(O)c(O)c(OC(=O)c4cc(O)c(O)c(OC(=O)c5cc(O)c(O)c(O)c5)c4)c3)c2)c1` [Compound 107, 5-((3-(4-(trifluoromethyl)phenethyl)-1H-pyrazole-5-carbonyl)oxy)-1,3-phenylene bis(3-((3-((3-((3,4-dihydroxy-5-((3,4,5-trihydroxybenzoyl)oxy)benzoyl)oxy)-4,5-dihydroxybenzoyl)oxy)-4,5-dihydroxybenzoyl)oxy)-4,5-dihydroxybenzoate)] showed an IC50 of 7 nM.

Molecule `O=C(Oc1cc(C(=O)O[C@H]2OC[C@@H](OC(=O)c3cc(O)c(O)c(OC(=O)c4cc(O)c(O)c(O)c4)c3)[C@H](OC(=O)c3cc(O)c(O)c(OC(=O)c4cc(O)c(O)c(O)c4)c3)[C@H]2OC(=O)c2cc(O)c(O)c(OC(=O)c3cc(O)c(O)c(O)c3)c2)cc(O)c1O)c1cc(O)c(O)c(O)c1` [Compound 117, (2R,3R,4S,5R)-tetrahydro-2H-pyran-2,3,4,5-tetrayl tetrakis(3,4-dihydroxy-5-((3,4,5-trihydroxybenzoyl)oxy)benzoate)] registered an IC50 of 9 nM.

Molecule `O=C(Oc1cc(C(=O)Oc2cc(C(=O)O[C@H]3OC[C@@H](OC(=O)c4cc(O)c(O)c(OC(=O)c5cc(O)c(O)c(OC(=O)c6cc(O)c(O)c(O)c6)c5)c4)[C@H](OC(=O)c4cc(O)c(O)c(OC(=O)c5cc(O)c(O)c(OC(=O)c6cc(O)c(O)c(O)c6)c5)c4)[C@H]3OC(=O)c3cc(O)c(O)c(OC(=O)c4cc(O)c(O)c(OC(=O)c5cc(O)c(O)c(O)c5)c4)c3)cc(O)c2O)cc(O)c1O)c1cc(O)c(O)c(O)c1` [Compound 119, (2R,3R,4S,5R)-tetrahydro-2H-pyran-2,3,4,5-tetrayl tetrakis(3-((3,4-dihydroxy-5-((3,4,5-trihydroxybenzoyl)oxy)benzoyl)oxy)-4,5-dihydroxybenzoate)] registered an IC50 of 5 nM.
